Test results: PMC11764150 (2025)
Read-outs that look alike come from different tables or passages of the source.

Legend:
[1] = test system: COC Apt-AuNP (biotin-ended COC aptamer) (DNA, aptamer) AGGAATTCAGATCTCCCTGCAGTTCGAGGAAGAATAGACCTGCCTTCTAATAGCTCGAGGAGCTCAGGATCCCG; assay: competitive lateral flow assay
[2] = test system: MET Apt-AuNP (biotin-ended MET aptamer) (DNA, aptamer) AGGAATTCAGATCTCCCTGCAGAAAACAGACCACCCACTTTGAATCCACTTGACTCGAGGAGCTCAGGATCCCG; assay: competitive lateral flow assay
[3] = test system: COC aptamer (DNA, aptamer) AGGAATTCAGATCTCCCTGCAGTTCGAGGAAGAATAGACCTGCCTTCTAATAGCTCGAGGAGCTCAGGATCCCG; assay: isothermal titration calorimetry; conditions: 100 mM NaCl, 2.7 mM KCl, 2 mM MgCl2
[4] = test system: MET aptamer (DNA, aptamer) AGGAATTCAGATCTCCCTGCAGAAAACAGACCACCCACTTTGAATCCACTTGACTCGAGGAGCTCAGGATCCCG; assay: isothermal titration calorimetry; conditions: 100 mM NaCl, 2.7 mM KCl, 2 mM MgCl2

Row | binding ([1]; synthetic saliva, gold nanoparticle conjugate, COC-BSA test line, positive at 5.0 ng/mL to 1.0 µg/mL) | binding [2] | Kd [3] [nM] | binding [1] | binding ([1]; synthetic saliva, gold nanoparticle conjugate, COC-BSA test line) | Kd [4] [nM] | Structure (SMILES)
1 | yes | no | 306 |  |  |  | COC(=O)[C@H]1[C@@H](OC(=O)c2ccccc2)C[C@@H]2CC[C@H]1N2C
2 |  | no |  | no |  |  | COc1ccc2c3c1O[C@H]1[C@@H](O)C=C[C@H]4[C@@H](C2)N(C)CC[C@@]341
3 |  | yes |  |  | no | 570 | CN[C@@H](C)Cc1ccccc1
4 |  | no |  | no |  |  | CCCCCc1cc(O)c2c(c1)OC(C)(C)[C@@H]1CCC(C)=C[C@@H]21
